Values quoted from earlier work, collected in PubChem BioAssay AID1259409 (Chemical Carcinogenesis Research Information System (CCRIS), 2018).

System: rodent chemically induced tumor inhibition, incidence and multiplicity
Experiment: CCRIS tumor inhibitor studies
Settings: Dose [Inhibitor]: 0, Route [Inhibitor]: ORAL

SMILES: Oc1ccccc1O
- tumour outcome (control, treated, inhibition, significance) (Carcinogen: N-BIS(2-HYDROXYPROPYL)NITROSAMINE, 53609-64-6, 0.8% IN DIET FOR 30 WK BEGINNING POST CARCINOGEN TREATMENT (STUDY DURATION: 32 WK), Species: RAT, Strain/Sex: F344/MALE, Target Tissue: Type of Lesion: KIDNEY: PAPILLOMA OR TRANSITIONAL CELL CARCINOMA, Dose [Carcinogen]: 0.1% IN DRINKING WATER FOR 2 WK, Promoter: NONE USED): 10%, 10%, 0%, not significant
- tumour outcome (control, treated, inhibition, significance) (Carcinogen: N-BIS(2-HYDROXYPROPYL)NITROSAMINE, 53609-64-6, 0.8% IN DIET FOR 30 WK BEGINNING POST CARCINOGEN TREATMENT (STUDY DURATION: 32 WK), Species: RAT, Strain/Sex: F344/MALE, Target Tissue: Type of Lesion: LUNG: ADENOMA, Dose [Carcinogen]: 0.1% IN DRINKING WATER FOR 2 WK, Promoter: NONE USED): 100%, 95%, 5%, not calculated
- tumour outcome (control, treated, inhibition, significance) (Carcinogen: N-BIS(2-HYDROXYPROPYL)NITROSAMINE, 53609-64-6, 0.8% IN DIET FOR 30 WK BEGINNING POST CARCINOGEN TREATMENT (STUDY DURATION: 32 WK), Species: RAT, Strain/Sex: F344/MALE, Target Tissue: Type of Lesion: LUNG: CARCINOMA, Dose [Carcinogen]: 0.1% IN DRINKING WATER FOR 2 WK, Promoter: NONE USED): 45%, 20%, 56%, not calculated
- outcome (Carcinogen: N-BIS(2-HYDROXYPROPYL)NITROSAMINE, 53609-64-6, 0.8% IN DIET FOR 30 WK BEGINNING POST CARCINOGEN TREATMENT (STUDY DURATION: 32 WK), Species: RAT, Strain/Sex: F344/MALE, Target Tissue: Type of Lesion: THYROID: ADENOMA, Dose [Carcinogen]: 0.1% IN DRINKING WATER FOR 2 WK, Promoter: NONE USED): 5%, 5%, 0, not significant
- tumour outcome (control, treated, inhibition, significance) (Carcinogen: N-BIS(2-HYDROXYPROPYL)NITROSAMINE, 53609-64-6, 0.8% IN DIET FOR 30 WK BEGINNING POST CARCINOGEN TREATMENT (STUDY DURATION: 32 WK), Species: RAT, Strain/Sex: F344/MALE, Target Tissue: Type of Lesion: THYROID: CARCINOMA, Dose [Carcinogen]: 0.1% IN DRINKING WATER FOR 2 WK, Promoter: NONE USED): 20%, 5%, 75%, not calculated
- tumour outcome (control, treated, inhibition, significance) (Carcinogen: N-NITROSOBIS(2-OXOPROPYL)AMINE, 60599-38-4, 0.75% IN DIET FOR 16 WK BEGINNING 2 WK POST CARCINOGEN TREATMENT (STUDY DURATION: 20 WK), Species: HAMSTER, Strain/Sex: SYRIAN/FEMALE, Target Tissue: Type of Lesion: GALL BLADDER: ADENOMA, Dose [Carcinogen]: 70 MG/KG IN SALINE FOLLOWED 2 WK LATER BY SECOND TREATMENT): 9/18 (50%), 7/10 (70%), -40%, not calculated
- tumour outcome (control, treated, inhibition, significance) (Carcinogen: N-NITROSOBIS(2-OXOPROPYL)AMINE, 60599-38-4, 0.75% IN DIET FOR 16 WK BEGINNING 2 WK POST CARCINOGEN TREATMENT (STUDY DURATION: 20 WK), Species: HAMSTER, Strain/Sex: SYRIAN/FEMALE, Target Tissue: Type of Lesion: LIVER: CHOLANGIOCARCINOMA, Dose [Carcinogen]: 70 MG/KG IN SALINE FOLLOWED 2 WK LATER BY SECOND TREATMENT): 16/18 (89%), 8/10 (80%), 10%, not calculated
- tumour outcome (control, treated, inhibition, significance) (Carcinogen: N-NITROSOBIS(2-OXOPROPYL)AMINE, 60599-38-4, 0.75% IN DIET FOR 16 WK BEGINNING 2 WK POST CARCINOGEN TREATMENT (STUDY DURATION: 20 WK), Species: HAMSTER, Strain/Sex: SYRIAN/FEMALE, Target Tissue: Type of Lesion: LIVER: NEOPLASTIC NODULE, Dose [Carcinogen]: 70 MG/KG IN SALINE FOLLOWED 2 WK LATER BY SECOND TREATMENT): 18/18 (100%), 10/10 (100%), 0%, not significant
- tumour outcome (control, treated, inhibition, significance) (Carcinogen: N-NITROSOBIS(2-OXOPROPYL)AMINE, 60599-38-4, 0.75% IN DIET FOR 16 WK BEGINNING 2 WK POST CARCINOGEN TREATMENT (STUDY DURATION: 20 WK), Species: HAMSTER, Strain/Sex: SYRIAN/FEMALE, Target Tissue: Type of Lesion: PANCREAS: ADENOCARCINOMA, Dose [Carcinogen]: 70 MG/KG IN SALINE FOLLOWED 2 WK BY SECOND TREATMENT): 14/18 (78%), 6/10 (60%), 23%, not calculated
- tumour outcome (control, treated, inhibition, significance) (Carcinogen: N-NITROSOBIS(2-OXOPROPYL)AMINE, 60599-38-4, 1.5% IN DIET FOR 16 WK BEGINNING 2 WK POST CARCINOGEN TREATMENT (STUDY DURATION: 20 WK), Species: HAMSTER, Strain/Sex: SYRIAN/FEMALE, Target Tissue: Type of Lesion: GALL BLADDER: ADENOMA, Dose [Carcinogen]: 70 MG/KG IN SALINE FOLLOWED 2 WK LATER BY SECOND TREATMENT): 9/18 (50%), 10/17 (59%), -18%, not calculated
- tumour outcome (control, treated, inhibition, significance) (Carcinogen: N-NITROSOBIS(2-OXOPROPYL)AMINE, 60599-38-4, 1.5% IN DIET FOR 16 WK BEGINNING 2 WK POST CARCINOGEN TREATMENT (STUDY DURATION: 20 WK), Species: HAMSTER, Strain/Sex: SYRIAN/FEMALE, Target Tissue: Type of Lesion: GALL BLADDER: CARCINOMA, Dose [Carcinogen]: 70 MG/KG IN SALINE FOLLOWED 2 WK LATER BY SECOND TREATMENT): 1/18 (6%), 2/17 (12%), -100%, not calculated
- tumour outcome (control, treated, inhibition, significance) (Carcinogen: N-NITROSOBIS(2-OXOPROPYL)AMINE, 60599-38-4, 1.5% IN DIET FOR 16 WK BEGINNING 2 WK POST CARCINOGEN TREATMENT (STUDY DURATION: 20 WK), Species: HAMSTER, Strain/Sex: SYRIAN/FEMALE, Target Tissue: Type of Lesion: LIVER: CHOLANGIOCARCINOMA, Dose [Carcinogen]: 70 MG/KG IN SALINE FOLLOWED 2 WK LATER BY SECOND TREATMENT): 16/18 (89%), 11/17 (65%), 27%, not calculated
- tumour outcome (control, treated, inhibition, significance) (Carcinogen: N-NITROSOBIS(2-OXOPROPYL)AMINE, 60599-38-4, 1.5% IN DIET FOR 16 WK BEGINNING 2 WK POST CARCINOGEN TREATMENT (STUDY DURATION: 20 WK), Species: HAMSTER, Strain/Sex: SYRIAN/FEMALE, Target Tissue: Type of Lesion: LIVER: NEOPLASTIC NODULE, Dose [Carcinogen]: 70 MG/KG IN SALINE FOLLOWED 2 WK LATER BY SECOND TREATMENT): 100%, 100%, 0%, not significant
- tumour outcome (control, treated, inhibition, significance) (Carcinogen: N-NITROSOBIS(2-OXOPROPYL)AMINE, 60599-38-4, 1.5% IN DIET FOR 16 WK BEGINNING 2 WK POST CARCINOGEN TREATMENT (STUDY DURATION: 20 WK), Species: HAMSTER, Strain/Sex: SYRIAN/FEMALE, Target Tissue: Type of Lesion: PANCREAS: ADENOCARCINOMA, Dose [Carcinogen]: 70 MG/KG IN SALINE FOLLOWED 2 WK LATER BY SECOND TREATMENT): 14/18 (78%), 13/17 (76%), 3%, not calculated
